Measurements published in PMC8307317, “Point-Substitution of Phenylalanine Residues of 26RFa Neuropeptide: A Structure-Activity Relationship Study” (Molecules, 2021).
Like-named read-outs stand apart in the source and are kept apart here. Starred links: 1 amine or outer side, 2 acyl side, 3 side chain; linkers in the order of their positions; H or OH if unused. Positions of bridges follow the written chain, without caps; N, C: chain ends. Non-standard residues stand in square brackets, D forms with d. Residues, ends and D or L forms follow the SMILES beside them. No end group written: not given here. ξ: configuration not given here. *: point of attachment. Ahppa(3S,4S) = O=C(C[C@H](O)[C@H](Cc1ccccc1)N[*:1])[*:2]; Phe(4-NO2) = N[C@@H](Cc1ccc([N+](=O)[O-])cc1)C(=O)O; Phe(4-tBu) = CC(C)(C)c1ccc(C[C@H](N)C(=O)O)cc1; Oic = O=C(O)[C@@H]1C[C@@H]2CCCC[C@@H]2N1; Phe(4-Cl) = N[C@@H](Cc1ccc(Cl)cc1)C(=O)O; X3 = O=C(C(c1cccc(F)c1)N1CCNCC1)*; X6 = O=C(C(c1ccc(F)cc1)N1CCNCC1)*; Tic = O=C(O)[C@@H]1Cc2ccccc2CN1; dTic = O=C(O)[C@H]1Cc2ccccc2CN1; 2Thi = N[C@@H](Cc1cccs1)C(=O)O; X1 = O=C(C(c1cccnc1)N1CCNCC1)*; ξPhg = NC(C(=O)O)c1ccccc1; Nphe = O=C(O)CNCc1ccccc1

Columns and labels:
human QRFPR (hQRFPR) [1] = molecular target: T1, human QRFPR (hQRFPR) (Homo sapiens, UniProt Q96P65); design: method as in PMID 22800498; details: cited from earlier work
T1 construct: expressed in transfected cells; host or cells: CHO cells, stably transfected with hQRFPR (G418 selection) and Gα16 (hygromycin B selection)
T1 sequence (Q96P65 1-431): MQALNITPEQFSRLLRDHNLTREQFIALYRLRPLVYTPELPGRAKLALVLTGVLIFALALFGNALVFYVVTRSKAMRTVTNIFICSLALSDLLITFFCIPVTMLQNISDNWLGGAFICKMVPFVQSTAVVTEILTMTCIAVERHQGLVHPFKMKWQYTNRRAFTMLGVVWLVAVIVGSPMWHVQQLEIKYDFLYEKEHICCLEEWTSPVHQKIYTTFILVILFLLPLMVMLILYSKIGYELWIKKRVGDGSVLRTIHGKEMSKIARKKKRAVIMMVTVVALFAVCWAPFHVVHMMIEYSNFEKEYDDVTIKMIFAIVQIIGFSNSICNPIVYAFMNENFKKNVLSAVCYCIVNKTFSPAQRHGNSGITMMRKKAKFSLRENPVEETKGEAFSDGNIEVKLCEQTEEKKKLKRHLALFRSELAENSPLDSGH

human QRFPR (hQRFPR) [2] = molecular target: T1, human QRFPR (hQRFPR); assay: Calcium mobilization assay, antagonist mode (26RFa-evoked [Ca2+]i increase in Gα16-hQRFPR-transfected CHO cells); assay type: cell-based; details: for inhibition at 10 µM: CHO, read-out: Imax (inhibition of 26RFa-evoked response); for inhibition at 10 µM / Imax (inhibition of 26RFa-evoked response): Inhibition at a maximal concentration of 10^−5 M, 10^−7 M 26RFa
Method: (§1) Stably transfected hQRFPR CHO cells were obtained as previously described. The cells were maintained in F-12 nutrient mixture (Ham-F12) medium supplemented with 10% fetal bovine serum, 2 mM glutamine, and penicillin-streptomycin. Expression of Gα16 cells was maintained using selection antibiotic hygromycin B (200 µg/mL) and that of hQRFPR using geneticin G418 (500 µg/mL) (Life Technologies, Villebon-Sur-Yvette, France) in a humidified 5% CO2 atmosphere at 37 °C.
(§2) Changes in intracellular Ca^2+ concentrations induced by 26RFa(20–26) analogs in CHO-Gα16-hQRFPR-transfected cells were measured on a benchtop scanning fluorometer Flexstation III (Molecular Devices, Sunnyvale, CA, USA) as previously described. Briefly, 96-well assay black plates with clear bottoms (Corning international, Avon, France) were seeded at a density of 40,000 cells/well 24 h prior to assay. For profiling agonistic experiments, cells were loaded with 2 µM Fluo-4 acetoxymethyl ester (AM) (Invitrogen) for 1 h in the presence of 0.01% pluronic acid, washed thrice, and incubated for 30 min with standard HBSS containing 2.5 mM probenecid and 5 mM HEPES. Compounds to be tested were added at final concentrations ranging from 10^−11 to 10^−5 M in HBSS, and the fluorescence intensity was measured during 3 min. To evaluate the antagonistic potency of the test compounds, cells were incubated with each compound over 15 min after Fluo-4 AM loading. Then, during fluorescence recording, a pulse of 26RFa was administered at a final concentration of 10^−7 M. After subtraction of the mean fluorescence background, the baseline was normalized to 100%. Fluorescence peak values were determined for each concentration of compound.
(§3) Calcium experiments were performed in triplicate, and data, expressed as mean ± SEM of at least three distinct experiments, were analyzed with the Prism 8.0 software (Graphpad Software, San Diego, CA, USA). EC50 and the IC50 values were determined from concentration–response curves using a sigmoidal dose–response fit with variable slope from at least three independent determinations. Differences between 26RFa(20–26) and analog activities were analyzed by the Mann–Whitney test. p values < 0.05 were considered significant.

human QRFPR (hQRFPR) [3] = molecular target: T1, human QRFPR (hQRFPR); assay: Calcium mobilization assay, agonist mode ([Ca2+]i in Gα16-hQRFPR-transfected CHO cells); assay type: cell-based
Method: as §1, §2, §3

[4] = single prototype curve, triplicate, 10^−7 M 26RFa-evoked response, read-out: IC50 calculated from representative dose–inhibition curves (Figure 4)
[5] = [Ca2+]i mobilization in Gα16-hQRFPR-transfected CHO cells, mean of at least three independent experiments performed in triplicate, read-out: EC50
[6] = single prototype curve, triplicate, basal [Ca2+]i mobilization, read-out: EC50 calculated from representative dose–response curves (Figure 3)

Molecule	EC50 (human QRFPR (hQRFPR) [3]; [5]) [µM]	further results
[Cmpi^21]26RFa(21–26) [LV-2043]		fold more potent than the reference heptapeptide 26RFa(20–26) (human QRFPR (hQRFPR) [1]): 5 fold
N=C(N)NCCC[C@H](NC(=O)[C@H](Cc1ccccc1)NC(=O)[C@H](CO)NC(=O)[C@H](Cc1ccccc1)NC(=O)CNC(=O)CN)C(=O)N[C@H](Cc1c[nH]c2ccccc12)C(N)=O [Compound 39, [DTrp^26]26RFa(20–26)] (H-GGFSFR[dW]-NH2)		inhibition at 10 µM (human QRFPR (hQRFPR) [2]): 45 to 46%; Imax (inhibition of 26RFa-evoked response) (human QRFPR (hQRFPR) [2]): 46%; IC50 (human QRFPR (hQRFPR) [2]; [4]): 5.84 µM
N=C(N)NCCC[C@H](NC(=O)[C@H](Cc1ccccc1)NC(=O)[C@H](CO)NC(=O)[C@H](Cc1ccccc1)NC(=O)CNC(=O)CN)C(=O)N[C@@H](Cc1ccc(Cl)cc1)C(N)=O [Compound 16, [Pcp^26]26RFa(20–26)] (H-GGFSFR[Phe(4-Cl)]-NH2)	0.457	EC50 (human QRFPR (hQRFPR) [3]; [6]): 0.416 µM
N=C(N)NCCC[C@H](NC(=O)[C@H](Cc1ccccc1)NC(=O)[C@H](CO)NC(=O)[C@H](Cc1ccccc1)NC(=O)CNC(=O)CN)C(=O)N[C@@H](Cc1ccc([N+](=O)[O-])cc1)C(N)=O [Compound 19, [pNO2Phe^26]26RFa(20–26)] (H-GGFSFR[Phe(4-NO2)]-NH2)	0.491	EC50 (human QRFPR (hQRFPR) [3]; [6]): 0.489 µM
N=C(N)NCCC[C@H](NC(=O)[C@H](Cc1ccccc1)NC(=O)[C@H](CO)NC(=O)C(NC(=O)CNC(=O)CN)c1ccccc1)C(=O)N[C@@H](Cc1ccccc1)C(N)=O (stereo partly shown) [Compound 20, [Phg^22]26RFa(20–26)] (H-GG[ξPhg]SFRF-NH2)	5.01	
CC(C)(C)c1ccc(C[C@H](NC(=O)CNC(=O)CN)C(=O)N[C@@H](CO)C(=O)N[C@@H](Cc2ccccc2)C(=O)N[C@@H](CCCNC(=N)N)C(=O)N[C@@H](Cc2ccccc2)C(N)=O)cc1 [Compound 11, [ptBuPhe^22]26RFa(20–26)] (H-GG[Phe(4-tBu)]SFRF-NH2)	> 10	inhibition at 10 µM (human QRFPR (hQRFPR) [2]): 45 to 46%; Imax (inhibition of 26RFa-evoked response) (human QRFPR (hQRFPR) [2]): 45%; IC50 (human QRFPR (hQRFPR) [2]; inhibition of 10^−7 M 26RFa-evoked [Ca2+]i response, compounds inactive as agonists, ND = not detectable, read-out: IC50): 6.22 µM; IC50 (human QRFPR (hQRFPR) [2]; [4]): 4.49 µM
CC(C)(C)c1ccc(C[C@H](NC(=O)[C@H](CCCNC(=N)N)NC(=O)[C@H](Cc2ccccc2)NC(=O)[C@H](CO)NC(=O)[C@H](Cc2ccccc2)NC(=O)CNC(=O)CN)C(N)=O)cc1 [Compound 13, [ptBuPhe^26]26RFa(20–26)] (H-GGFSFR[Phe(4-tBu)]-NH2)	1.04	EC50 (human QRFPR (hQRFPR) [3]; [6]): 1.08 µM
GGFSFRF-NH2 [Compound 1, 26RFa(20–26)]		EC50 (human QRFPR (hQRFPR) [3]; [6]): 1.07 µM
GGFSFRW-NH2 [Compound 10, [Trp^26]26RFa(20–26)]	5.06	
N=C(N)NCCC[C@H](NC(=O)[C@H](Cc1ccccc1)NC(=O)[C@H](CO)NC(=O)[C@H](Cc1ccccc1)NC(=O)CNC(=O)CN)C(=O)N[C@@H](Cc1cccs1)C(N)=O [Compound 4, [Thi^26]26RFa(20–26)] (H-GGFSFR[2Thi]-NH2)	7.23	
N=C(N)NCCC[C@H](NC(=O)[C@H](Cc1ccc(Cl)cc1)NC(=O)[C@H](CO)NC(=O)[C@H](Cc1ccccc1)NC(=O)CNC(=O)CN)C(=O)N[C@@H](Cc1ccccc1)C(N)=O [Compound 15, [Pcp^24]26RFa(20–26)] (H-GGFS[Phe(4-Cl)]RF-NH2)	0.85	

More lines, main results first:

EC50 (human QRFPR (hQRFPR) [3]; [5]) [µM]	Molecule	further results
1.66	N=C(N)NCCC[C@H](NC(=O)[C@H](Cc1ccccc1)NC(=O)[C@H](CO)NC(=O)C(c1ccc(F)cc1)N1CCNCC1)C(=O)N[C@@H](Cc1ccccc1)C(N)=O (stereo partly shown) [Compound 52, [Cmpi(4-FPhg)^22]26RFa(22–26)] (X6-SFRF-NH2)	
> 10	N=C(N)NCCC[C@H](NC(=O)CN(Cc1ccccc1)C(=O)[C@H](CO)NC(=O)[C@H](Cc1ccccc1)NC(=O)CNC(=O)CN)C(=O)N[C@@H](Cc1ccccc1)C(N)=O [Compound 32, [NPhe^24]26RFa(20–26)] (H-GGFS[Nphe]RF-NH2)	
0.578	N=C(N)NCCC[C@H](NC(=O)[C@H](Cc1ccccc1)NC(=O)[C@H](CO)NC(=O)CN(Cc1ccccc1)C(=O)CNC(=O)CN)C(=O)N[C@@H](Cc1ccccc1)C(N)=O [Compound 31, [NPhe^22]26RFa(20–26)] (H-GG[Nphe]SFRF-NH2)	EC50 (human QRFPR (hQRFPR) [3]; [6]): 0.149 µM
> 10	N=C(N)NCCC[C@H](NC(=O)[C@@H]1C[C@@H]2CCCC[C@@H]2N1C(=O)[C@H](CO)NC(=O)[C@H](Cc1ccccc1)NC(=O)CNC(=O)CN)C(=O)N[C@@H](Cc1ccccc1)C(N)=O [Compound 44, [Oic^24]26RFa(20–26)] (H-GGFS[Oic]RF-NH2)	
> 10	N=C(N)NCCC[C@@H]1NC(=O)[C@@H](NC(=O)[C@H](CO)NC(=O)[C@H](Cc2ccccc2)NC(=O)CNC(=O)CN)CSSC[C@@H](C(N)=O)NC1=O [Compound 48, [Cys^24,26]26RFa(20–26)] (H-GGFSCRC-NH2; disulfide 5-7)	
2.71	N=C(N)NCCC[C@H](NC(=O)[C@H](Cc1ccccc1)NC(=O)[C@H](CO)NC(=O)C(c1cccc(F)c1)N1CCNCC1)C(=O)N[C@@H](Cc1ccccc1)C(N)=O (stereo partly shown) [Compound 54, [Cmpi(3-FPhg)^22]26RFa(22–26)] (X3-SFRF-NH2)	
> 10	N=C(N)NCCC[C@H](NC(=O)C[C@H](O)[C@H](Cc1ccccc1)NC(=O)[C@H](CO)NC(=O)[C@H](Cc1ccccc1)NC(=O)CNC(=O)CN)C(=O)N[C@@H](Cc1ccccc1)C(N)=O [Compound 35, [AHPPA^24]26RFa(20–26)] (H-GGFS[Ahppa(3S,4S)]RF-NH2)	
7.7	N=C(N)NCCC[C@H](NC(=O)[C@H](Cc1ccccc1)NC(=O)[C@H](CO)NC(=O)[C@H](Cc1ccccc1)NC(=O)CNC(=O)CN)C(=O)N1Cc2ccccc2C[C@H]1C(N)=O [Compound 30, [Tic^26]26RFa(20–26)] (H-GGFSFR[Tic]-NH2)	
> 10	N=C(N)NCCC[C@H](NC(=O)[C@@H]1CSSC[C@H](NC(=O)CNC(=O)CN)C(=O)N[C@@H](CO)C(=O)N1)C(=O)N[C@@H](Cc1ccccc1)C(N)=O [Compound 46, [Cys^22,24]26RFa(20–26)] (H-GGCSCRF-NH2; disulfide 3-5)	
> 10	N=C(N)NCCC[C@H](NC(=O)[C@H](Cc1ccccc1)NC(=O)[C@H](CO)NC(=O)[C@H](Cc1ccccc1)NC(=O)CNC(=O)CN)C(=O)NC(C(N)=O)c1ccccc1 (stereo partly shown) [Compound 24, [Phg^26]26RFa(20–26)] (H-GGFSFR[ξPhg]-NH2)	
4.99	N=C(N)NCCC[C@H](NC(=O)[C@H](Cc1ccccc1)NC(=O)[C@H](CO)NC(=O)[C@H]1Cc2ccccc2CN1C(=O)CNC(=O)CN)C(=O)N[C@@H](Cc1ccccc1)C(N)=O [Compound 40, [DTic^22]26RFa(20–26)] (H-GG[dTic]SFRF-NH2)	
> 10	N=C(N)NCCC[C@H](NC(=O)[C@H](Cc1ccccc1)NC(=O)[C@H](CO)NC(=O)[C@H](Cc1ccccc1)NC(=O)CNC(=O)CN)C(=O)N1Cc2ccccc2C[C@@H]1C(N)=O [Compound 42, [DTic^26]26RFa(20–26)] (H-GGFSFR[dTic]-NH2)	
4.99	N=C(N)NCCC[C@H](NC(=O)[C@H](Cc1ccccc1)NC(=O)[C@H](CO)NC(=O)C(c1cccnc1)N1CCNCC1)C(=O)N[C@@H](Cc1ccccc1)C(N)=O (stereo partly shown) [Compound 63, [Cmpi(3-Pyg)^22]26RFa(22–26)] (X1-SFRF-NH2)	
